Measured values published in patent publication US20110295006A1, “CYCLIC DIPEPTIDES AS FEED ADDITIVES” (EVONIK DEGUSSA GMBH, priority 2010, published 2011).

What was measured:
[1] = Pelletizing and extrusion stability in feed production; type: physicochemical
[2] = Leaching behavior from feed in water; type: physicochemical
[3] = Solubility (water, pH, bile/water mixtures); type: physicochemical
[4] = Blank without enzyme solution (purely chemical cleavage rate); type: physicochemical; details: no enzyme solution
Description: DD/LL-cyclo-Met-Met was taken up in TRIS/HCl buffer solution and the enzyme solution was added to it. As comparison and for assessing the purely chemical cleavage rate, in each case a blank was prepared without enzyme solution (see Table 1). A sample was taken from time to time and its composition was detected and quantified using a calibrated HPLC. The conversion was determined as the quotient of the content of methionine or methionylmethionine (Met-Met) and the content of DD/LL-cyclo-Met-Met (see FIG. 4). […] [table] The in vitro studies were carried out as in Example 11. The conversion was determined as the quotient of the content of methionine or methionylmethionine (Met-Met) and the content of cyclo-Met-Met (see FIG. 3). […] [table] The in vitro studies were carried out as in Example 11. The conversion was determined as the quotient of the content of methionine or D-Met-L-Thr and the content of cyclo-D-Met-L-Thr (see FIG. 9). […] [table]

[5] = system: digestive enzymes from rainbow trout; assay: In vitro digestion tests with digestive enzymes from rainbow trout; type: in vitro ADME, Oncorhynchus mykiss; details: pH 9
Description: (§1) The diketopiperazines were digested in vitro with digestive enzymes from carnivorous rainbow trout and omnivorous mirror carp. For this, the enzymes were removed from the digestive tracts of fishes and shrimps. The enzyme solutions obtained were then added to the diketopiperazines. For better comparability of the digestibility of dipeptides of various species, identical conditions were selected for the in vitro digestion studies (37° C., pH 9).
a) Isolation of the Digestive Enzymes from Rainbow Trout (Oncorhynchus mykiss)
The digestive enzymes were isolated based on the method of EID and MATTY (Aquaculture 1989, 79, 111-119). For this, the intestine was removed from five one-year-old rainbow trout (Oncorhynchus mykiss) and processed as described in Example 11. 56 ml of enzyme solution of the intestinal mucosa was obtained from 5 rainbow trout. The solution was stored in the dark at 4° C.
The in vitro studies were carried out as in Example 11. The conversion was determined as the quotient of the content of methionine or methionylmethionine (Met-Met) and the content of cyclo-Met-Met (see FIG. 3).
The test from Example 12b) was carried out similarly, with the cyclic dipeptides cyclo-D-Met-L-Phe and cyclo-D-Met-L-Lys (see FIGS. 7 and 8).

Litopenaeus vannamei = details: feeding tests; Forster and Dominy 2006; cited from earlier work
[6] = system: digestive enzymes from mirror carp; assay: In vitro digestion tests with digestive enzymes from mirror carp; type: in vitro ADME, Cyprinus carpio morpha noblis; details: pH 9
Description: as §1
a) Isolation of the Digestive Enzymes from Mirror Carp (Cyprinus carpio morpha noblis)
The digestive enzymes were isolated based on the method of EID and MATTY (Aquaculture 1989, 79, 111-119). For this, the intestine was removed from six one-year-old mirror carp (Cyprinus carpio morpha noblis), rinsed with water, cut open lengthwise and in each case the intestinal mucosa was scraped off. This was comminuted, together with crushed ice, in a mixer. The resultant suspension was treated with an ultrasonic rod, to disrupt any cells that were still intact. In order to separate the cell constituents and fat, the suspension was centrifuged for 30 minutes at 4° C., the homogenate was decanted off and sterilized with a trace of thimerosal. 49 ml of enzyme solution of the intestinal mucosa was obtained from 6 mirror carp. The solution was stored at 4° C. in the dark.
DD/LL-cyclo-Met-Met was taken up in TRIS/HCl buffer solution and the enzyme solution was added to it. As comparison and for assessing the purely chemical cleavage rate, in each case a blank was prepared without enzyme solution (see Table 1). A sample was taken from time to time and its composition was detected and quantified using a calibrated HPLC. The conversion was determined as the quotient of the content of methionine or methionylmethionine (Met-Met) and the content of DD/LL-cyclo-Met-Met (see FIG. 4).
The test from Example 11b) was carried out similarly, with the cyclic dipeptides cyclo-L-His-L-His and cyclo-D-Met-L-Leu (see FIGS. 5 and 6).

ruminants = details: disclosed in WO00/28835; cited from earlier work
chicken = details: Baker et al. 1982; cited from earlier work

Question: For `CSCCC1NC(=O)C(CCSC)NC1=O` (racemic) [DD/LL/meso-cyclo-Met-Met, 3,6-bis[2-(methylthio)ethyl]-2,5-piperazinedione], which “pelletizing and extrusion stability” value [1] is on record?
Answer: good pelletizing and extrusion stability

Question: And the leaching behavior [2]?
Answer: particularly good leaching behavior

Question: And the solubility [3]?
Answer: low solubility

Question: And the “conversion in the blank to dipeptide DD/LL/meso-Met-Met or DL-methionine” value ([4]; TRIS/HCl buffer pH 9.5, 37° C.)?
Answer: hardly any conversion

Question: What about the “enzymatic cleavage by digestive enzymes of rainbow trout” value (“enzymatic cleavage … of rainbow trout” below) ([5]; in vitro, 37° C.) of the same compound?
Answer: can be cleaved

Question: Which “efficacy relative to L-methionine” value (Litopenaeus vannamei) does the source give for `CSCCC(N)C(=O)O` (racemic) [DL-methionine] here?
Answer: same efficacy as L-methionine

Question: Which “enzymatic cleavage by digestive enzymes of mirror carp” value (shortened to “enzymatic cleavage … of mirror carp”) ([6]; in vitro, 37° C.) does the source give for `CSCCC1NC(=O)C(CCSC)NC1=O` (centres unmarked) [DD/LL-cyclo-Met-Met, 3,6-bis[2-(methylthio)ethyl]-2,5-piperazinedione] here?
Answer: can be cleaved

Question: What about the “reaction in the blank to dipeptide DD/LL-Met-Met or DL-methionine” value ([4]; TRIS/HCl buffer pH 9.5, bile, 37° C.) of the same compound?
Answer: hardly any reaction

Question: For `CSCCC(O)C(=O)OC(C)C` (centres unmarked) [HMBi], which biological value (ruminants) is on record?
Answer: at least 50%

Question: With `CSCC[C@H]1NC(=O)[C@@H](CCSC)NC1=O` [cyclo-D-Met-D-Met] as the compound, how does the “enzymatic cleavage … of mirror carp” value ([6]; in vitro, 37° C.) read?
Answer: can be cleaved

Question: What about the “enzymatic cleavage … of rainbow trout” value ([5]; in vitro, 37° C.) of the same compound?
Answer: can be cleaved

Question: Which results are given for `CSCC[C@@H]1NC(=O)[C@@H](CCSC)NC1=O` [cyclo-D-Met-L-Met]?
Answer: enzymatic cleavage by digestive enzymes of mirror carp ([6]; in vitro, 37° C.): can be cleaved; enzymatic cleavage by digestive enzymes of rainbow trout ([5]; in vitro, 37° C.): can be cleaved

Question: For `CSCC[C@H]1NC(=O)[C@H]([C@@H](C)O)NC1=O` [cyclo-D-Met-L-Thr, 3-(R)-[2-(methylthio)ethyl]-6-(S)-(1-(R)-hydroxyethyl)-2,5-piperazinedione], which “conversion in the blank to dipeptide D-Met-L-Thr or free amino acids” value ([4]; TRIS/HCl buffer pH 9.5, 37° C.) is on record?
Answer: hardly any conversion

Question: For `CSCC[C@@H]1NC(=O)[C@H](CCSC)NC1=O` [cyclo-L-Met-L-Met], which “enzymatic cleavage … of mirror carp” value [6] is on record?
Answer: can be cleaved

Question: And the “enzymatic cleavage … of rainbow trout” value [5]?
Answer: can be cleaved

Question: For poly-L-methionine, which biological value (chicken) is on record?
Answer: no biological value
